From the NIST ThermoML archive (doi:10.1021/je400536f)
Numbers after ± are expanded uncertainties.

Assays:
[1] = 298.15 K, 100 kPa, Liquid; for viscosity: Concentric cylinders viscometry; for mass density: Vibrating tube method
[2] = mn = molality of the nth substance listed, in mol/kg; settings: 298.15 K, 100 kPa, Liquid, dip-type immersion conductivity cell

CNC=O [N-methylformamide]
[1]
Settings | mass density [kg/m3] | viscosity [mPa·s]
– | 997.61 ± 5.4 | 1.65 ± 0.07

CCCC[N+](CCCC)(CCCC)CCCC.F[B-](F)(F)F [tetrabutylammonium tetrafluoroborate] + NC=O
[2]
Settings | molar conductivity [S·m2/mol]
m1 = 0.000829 | 0.00215 ± 5.8e-05
m1 = 0.001452 | 0.00203 ± 5.6e-05
m1 = 0.002025 | 0.00192 ± 5.1e-05
m1 = 0.002632 | 0.00183 ± 4.7e-05
m1 = 0.003181 | 0.00175 ± 4.5e-05
m1 = 0.003782 | 0.00167 ± 4.1e-05
m1 = 0.00457 | 0.00158 ± 3.9e-05
m1 = 0.005291 | 0.0015 ± 3.6e-05
m1 = 0.006131 | 0.00143 ± 3.4e-05
m1 = 0.007056 | 0.00134 ± 3.4e-05
m1 = 0.007921 | 0.00125 ± 3.3e-05
m1 = 0.008482 | 0.00119 ± 3.2e-05

NC=O [formamide]
[1]
Settings | mass density [kg/m3] | viscosity [mPa·s]
– | 1129.22 ± 6.9 | 3.3 ± 0.1

CCCC[N+](CCCC)(CCCC)CCCC.[O-][Cl+3]([O-])([O-])[O-] [tetrabutylammonium perchlorate] + CNC=O
[2]
Settings | molar conductivity [S·m2/mol]
m1 = 0.000795 | 0.00449 ± 0.00012
m1 = 0.001513 | 0.00423 ± 0.00011
m1 = 0.002025 | 0.00407 ± 9.9e-05
m1 = 0.002735 | 0.00389 ± 9.6e-05
m1 = 0.003295 | 0.00371 ± 9e-05
m1 = 0.003956 | 0.00358 ± 8.1e-05
m1 = 0.004802 | 0.00342 ± 7.7e-05
m1 = 0.005388 | 0.00333 ± 7.4e-05
m1 = 0.006053 | 0.00323 ± 7.3e-05
m1 = 0.006823 | 0.00309 ± 7e-05
m1 = 0.007832 | 0.00293 ± 6.6e-05
m1 = 0.008798 | 0.00279 ± 6.2e-05

CCCC[N+](CCCC)(CCCC)CCCC.F[B-](F)(F)F [tetrabutylammonium tetrafluoroborate] + C[N+](=O)[O-]
[2]
Settings | molar conductivity [S·m2/mol]
m1 = 0.000773 | 0.00833 ± 0.00022
m1 = 0.001303 | 0.00794 ± 0.00021
m1 = 0.001731 | 0.00765 ± 0.00019
m1 = 0.002372 | 0.00735 ± 0.00017
m1 = 0.002927 | 0.00709 ± 0.00016
m1 = 0.003576 | 0.00684 ± 0.00016
m1 = 0.004134 | 0.0066 ± 0.00015
m1 = 0.004914 | 0.0064 ± 0.00014
m1 = 0.005655 | 0.00617 ± 0.00014
m1 = 0.006577 | 0.00594 ± 0.00013
m1 = 0.007569 | 0.00568 ± 0.00012
m1 = 0.008556 | 0.00543 ± 0.00012

CCCC[N+](CCCC)(CCCC)CCCC.[O-][Cl+3]([O-])([O-])[O-] [tetrabutylammonium perchlorate] + NC=O
[2]
Settings | molar conductivity [S·m2/mol]
m1 = 0.000807 | 0.00312 ± 9e-05
m1 = 0.001498 | 0.0029 ± 8e-05
m1 = 0.002061 | 0.00278 ± 7.1e-05
m1 = 0.002673 | 0.00264 ± 6.6e-05
m1 = 0.003238 | 0.00255 ± 6.1e-05
m1 = 0.003856 | 0.00244 ± 5.9e-05
m1 = 0.004665 | 0.00231 ± 5.5e-05
m1 = 0.005242 | 0.00224 ± 5.1e-05
m1 = 0.006209 | 0.00212 ± 4.8e-05
m1 = 0.007157 | 0.00202 ± 4.4e-05
m1 = 0.00801 | 0.00196 ± 4.3e-05
m1 = 0.008612 | 0.00189 ± 4.3e-05

CCCC[N+](CCCC)(CCCC)CCCC.F[B-](F)(F)F [tetrabutylammonium tetrafluoroborate] + CNC=O
[2]
Settings | molar conductivity [S·m2/mol]
m1 = 0.000795 | 0.00352 ± 9.3e-05
m1 = 0.001513 | 0.00331 ± 9e-05
m1 = 0.002025 | 0.00314 ± 8.1e-05
m1 = 0.002735 | 0.00299 ± 7.4e-05
m1 = 0.003295 | 0.00286 ± 6.9e-05
m1 = 0.003956 | 0.00275 ± 6.4e-05
m1 = 0.004802 | 0.00262 ± 6.1e-05
m1 = 0.005388 | 0.00253 ± 6.1e-05
m1 = 0.006053 | 0.0024 ± 5.6e-05
m1 = 0.007327 | 0.00223 ± 5.2e-05
m1 = 0.007832 | 0.00216 ± 5e-05
m1 = 0.008798 | 0.00204 ± 4.7e-05

C[N+](=O)[O-] [nitromethane]
[1]
Settings | mass density [kg/m3] | viscosity [mPa·s]
– | 1130.15 ± 6.9 | 0.62 ± 0.06

CCCC[N+](CCCC)(CCCC)CCCC.[O-][Cl+3]([O-])([O-])[O-] [tetrabutylammonium perchlorate] + C[N+](=O)[O-]
[2]
Settings | molar conductivity [S·m2/mol]
m1 = 0.000864 | 0.0101 ± 0.00023
m1 = 0.001347 | 0.0098 ± 0.00022
m1 = 0.001806 | 0.00954 ± 0.00021
m1 = 0.00243 | 0.00927 ± 0.00021
m1 = 0.002992 | 0.00899 ± 0.0002
m1 = 0.003528 | 0.00879 ± 0.00019
m1 = 0.004186 | 0.00854 ± 0.00018
m1 = 0.004998 | 0.00831 ± 0.00018
m1 = 0.005715 | 0.00809 ± 0.00017
m1 = 0.006642 | 0.00777 ± 0.00017
m1 = 0.007639 | 0.00753 ± 0.00016
m1 = 0.008668 | 0.00731 ± 0.00015
